{"source": "ChEMBL document CHEMBL1201862", "about": "“PubChem BioAssay data set” (2004)", "assay_in_all_cases": "DTP human tumour cell line panel, 48 h", "key": {"A549": {"system": "A549"}, "ACHN": {"system": "ACHN"}, "DU-145": {"system": "DU-145"}, "HCT-15": {"system": "HCT-15"}, "HT-29": {"system": "HT-29"}, "IGROV-1": {"system": "IGROV-1"}, "M14": {"system": "M14"}, "MCF7": {"system": "MCF7"}, "MOLT-4": {"system": "MOLT-4"}, "NCI-H226": {"system": "NCI-H226"}, "NCI-H460": {"system": "NCI-H460"}, "OVCAR-8": {"system": "OVCAR-8"}, "PC-3": {"system": "PC-3"}, "RPMI-8226": {"system": "RPMI-8226"}, "SK-MEL-28": {"system": "SK-MEL-28"}, "T47D": {"system": "T47D"}, "TK-10": {"system": "TK-10"}, "UACC-62": {"system": "UACC-62"}, "UO-31": {"system": "UO-31"}}, "note": "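Growth conditions: 96-well plates. Treatment: test compound, 48 hours, 5 concentrations. Analysis: linear interpolation between bracketing concentrations; unreached endpoints set to highest concentration. GI50: concentration for 50% inhibition of growth.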 Activity calls are given as the source filed them. Rule as the data show it: active = GI50 up to about 1.1 µM and inactive = higher. Where a SMILES comes first, the peptide text is derived from it. [ ]: non-standard residue; d: D form. The star is where a group is joined. Octanoyl = CCCCCCCC(=O)*; Aib = CC(C)(N)C(=O)O; tBu = CC(C)(C)*"}
{"compound": "CC1COC(c2cn[nH]c2C(N)=O)C1O", "note": "(stereo not given)", "values": [{"measurement": "GI50", "setting": "A549", "result": "> 100 µM (inactive)"}, {"measurement": "GI50", "setting": "ACHN", "result": "> 100 µM (inactive)"}, {"measurement": "GI50", "setting": "DU-145", "result": "> 100 µM (inactive)"}, {"measurement": "GI50", "setting": "HCT-15", "result": "> 100", "unit": "µM"}, {"measurement": "GI50", "setting": "HT-29", "result": "> 100 µM (inactive)"}, {"measurement": "GI50", "setting": "IGROV-1", "result": "> 100 µM (inactive)"}, {"measurement": "GI50", "setting": "M14", "result": "> 100 µM (inactive)"}, {"measurement": "GI50", "setting": "MCF7", "result": "> 100 µM (inactive)"}, {"measurement": "GI50", "setting": "MOLT-4", "result": "> 100 µM (inactive)"}, {"measurement": "GI50", "setting": "NCI-H226", "result": "> 100 µM (inactive)"}, {"measurement": "GI50", "setting": "NCI-H460", "result": "> 100 µM (inactive)"}, {"measurement": "GI50", "setting": "OVCAR-8", "result": "> 100 µM (inactive)"}, {"measurement": "GI50", "setting": "PC-3", "result": "> 100 µM (inactive)"}, {"measurement": "GI50", "setting": "RPMI-8226", "result": "> 100 µM (inactive)"}, {"measurement": "GI50", "setting": "SK-MEL-28", "result": "> 100 µM (inactive)"}, {"measurement": "GI50", "setting": "T47D", "result": "> 100 µM (inactive)"}, {"measurement": "GI50", "setting": "TK-10", "result": "> 100 µM (inactive)"}, {"measurement": "GI50", "setting": "UACC-62", "result": "> 100 µM (inactive)"}, {"measurement": "GI50", "setting": "UO-31", "result": "> 100 µM (inactive)"}]}
{"compound": "O=C1NCC(CSc2nc3cc(C4CCCc5c4[nH]c4ccccc54)ccc3o2)N1", "note": "(stereo not given)", "values": [{"measurement": "GI50", "setting": "A549", "result": "22.5 µM (inactive)"}, {"measurement": "GI50", "setting": "ACHN", "result": "34.2 µM (inactive)"}, {"measurement": "GI50", "setting": "DU-145", "result": "56 µM (inactive)"}, {"measurement": "GI50", "setting": "HCT-15", "result": 24.5, "unit": "µM"}, {"measurement": "GI50", "setting": "HT-29", "result": "21.8 µM (inactive)"}, {"measurement": "GI50", "setting": "IGROV-1", "result": "33 µM (inactive)"}, {"measurement": "GI50", "setting": "M14", "result": "45.1 µM (inactive)"}, {"measurement": "GI50", "setting": "MCF7", "result": "39.7 µM (inactive)"}, {"measurement": "GI50", "setting": "MOLT-4", "result": "15.2 µM (inactive)"}, {"measurement": "GI50", "setting": "NCI-H226", "result": "62.7 µM (inactive)"}, {"measurement": "GI50", "setting": "NCI-H460", "result": "72.3 µM (inactive)"}, {"measurement": "GI50", "setting": "OVCAR-8", "result": "30.8 µM (inactive)"}, {"measurement": "GI50", "setting": "PC-3", "result": "37.2 µM (inactive)"}, {"measurement": "GI50", "setting": "RPMI-8226", "result": "22.4 µM (inactive)"}, {"measurement": "GI50", "setting": "SK-MEL-28", "result": "80.2 µM (inactive)"}, {"measurement": "GI50", "setting": "T47D", "result": "25.8 µM (inactive)"}, {"measurement": "GI50", "setting": "TK-10", "result": "72.4 µM (inactive)"}, {"measurement": "GI50", "setting": "UACC-62", "result": "39.6 µM (inactive)"}, {"measurement": "GI50", "setting": "UO-31", "result": "53.1 µM (inactive)"}]}
{"compound": "CCCCCCCC(=O)NC(C)(C)C(=O)NC(COC(C)(C)C)C(=O)NC(CC(C)C)C(=O)NC(C)(C)C(=O)NC(COC(C)(C)C)C(=O)NC(COC(C)(C)C)C(=O)NC(CC(C)C)C(=O)NC(C)(C)C(=O)NC(COC(C)(C)C)C(=O)NC(C(=O)NC(CC(C)C)C(=O)OC)C(C)CC", "note": "(stereo not given) (Octanoyl-[Aib]S(tBu)L[Aib]S(tBu)S(tBu)L[Aib]S(tBu)IL-OMe; configuration not given here)", "values": [{"measurement": "GI50", "setting": "A549", "result": "8.18 µM (inactive)"}, {"measurement": "GI50", "setting": "ACHN", "result": "7.62 µM (inactive)"}, {"measurement": "GI50", "setting": "DU-145", "result": "6.9 µM (inactive)"}, {"measurement": "GI50", "setting": "HCT-15", "result": 8.13, "unit": "µM"}, {"measurement": "GI50", "setting": "HT-29", "result": "4.94 µM (inactive)"}, {"measurement": "GI50", "setting": "IGROV-1", "result": "5.7 µM (inactive)"}, {"measurement": "GI50", "setting": "M14", "result": "6.32 µM (inactive)"}, {"measurement": "GI50", "setting": "MCF7", "result": "5.98 µM (inactive)"}, {"measurement": "GI50", "setting": "MOLT-4", "result": "5.52 µM (inactive)"}, {"measurement": "GI50", "setting": "NCI-H226", "result": "7.33 µM (inactive)"}, {"measurement": "GI50", "setting": "NCI-H460", "result": "5.64 µM (inactive)"}, {"measurement": "GI50", "setting": "OVCAR-8", "result": "8.65 µM (inactive)"}, {"measurement": "GI50", "setting": "PC-3", "result": "4.23 µM (inactive)"}, {"measurement": "GI50", "setting": "RPMI-8226", "result": "2.72 µM (inactive)"}, {"measurement": "GI50", "setting": "SK-MEL-28", "result": "14.4 µM (inactive)"}, {"measurement": "GI50", "setting": "T47D", "result": "6.38 µM (inactive)"}, {"measurement": "GI50", "setting": "TK-10", "result": "7.14 µM (inactive)"}, {"measurement": "GI50", "setting": "UACC-62", "result": "7.8 µM (inactive)"}, {"measurement": "GI50", "setting": "UO-31", "result": "14.6 µM (inactive)"}]}
{"compound": "CCOCCOC(=O)C1CCC(=O)N1CN(C(C)=O)c1cc(OC)ccc1OC", "note": "(stereo not given)", "values": [{"measurement": "GI50", "setting": "A549", "result": "> 100 µM (inactive)"}, {"measurement": "GI50", "setting": "ACHN", "result": "> 100 µM (inactive)"}, {"measurement": "GI50", "setting": "DU-145", "result": "> 100 µM (inactive)"}, {"measurement": "GI50", "setting": "HCT-15", "result": "> 100", "unit": "µM"}, {"measurement": "GI50", "setting": "HT-29", "result": "> 100 µM (inactive)"}, {"measurement": "GI50", "setting": "IGROV-1", "result": "> 100 µM (inactive)"}, {"measurement": "GI50", "setting": "M14", "result": "> 100 µM (inactive)"}, {"measurement": "GI50", "setting": "MCF7", "result": "> 100 µM (inactive)"}, {"measurement": "GI50", "setting": "MOLT-4", "result": "> 100 µM (inactive)"}, {"measurement": "GI50", "setting": "NCI-H226", "result": "> 100 µM (inactive)"}, {"measurement": "GI50", "setting": "NCI-H460", "result": "> 100 µM (inactive)"}, {"measurement": "GI50", "setting": "OVCAR-8", "result": "> 100 µM (inactive)"}, {"measurement": "GI50", "setting": "PC-3", "result": "> 100 µM (inactive)"}, {"measurement": "GI50", "setting": "RPMI-8226", "result": "> 100 µM (inactive)"}, {"measurement": "GI50", "setting": "SK-MEL-28", "result": "> 100 µM (inactive)"}, {"measurement": "GI50", "setting": "T47D", "result": "> 100 µM (inactive)"}, {"measurement": "GI50", "setting": "TK-10", "result": "> 100 µM (inactive)"}, {"measurement": "GI50", "setting": "UACC-62", "result": "> 100 µM (inactive)"}, {"measurement": "GI50", "setting": "UO-31", "result": "> 100 µM (inactive)"}]}
{"compound": "CCCCCCC(O)C(O)CCC(O)C1CCC(CCCCC(O)CC2=CC(C)OC2=O)O1", "note": "(stereo not given) [ACETOGENINS]", "values": [{"measurement": "GI50", "setting": "A549", "result": "1.79 µM (inactive)"}, {"measurement": "GI50", "setting": "ACHN", "result": "1.19 µM (inactive)"}, {"measurement": "GI50", "setting": "DU-145", "result": "6.19 µM (inactive)"}, {"measurement": "GI50", "setting": "HCT-15", "result": 4.53, "unit": "µM"}, {"measurement": "GI50", "setting": "HT-29", "result": "2.33 µM (inactive)"}, {"measurement": "GI50", "setting": "IGROV-1", "result": "2.95 µM (inactive)"}, {"measurement": "GI50", "setting": "M14", "result": "3.15 µM (inactive)"}, {"measurement": "GI50", "setting": "MCF7", "result": "1.26 µM (inactive)"}, {"measurement": "GI50", "setting": "MOLT-4", "result": "2.59 µM (inactive)"}, {"measurement": "GI50", "setting": "NCI-H226", "result": "1.74 µM (inactive)"}, {"measurement": "GI50", "setting": "NCI-H460", "result": "2.59 µM (inactive)"}, {"measurement": "GI50", "setting": "OVCAR-8", "result": "2.18 µM (inactive)"}, {"measurement": "GI50", "setting": "PC-3", "result": "2.78 µM (inactive)"}, {"measurement": "GI50", "setting": "RPMI-8226", "result": "7.41 µM (inactive)"}, {"measurement": "GI50", "setting": "SK-MEL-28", "result": "4.66 µM (inactive)"}, {"measurement": "GI50", "setting": "T47D", "result": "3.13 µM (inactive)"}, {"measurement": "GI50", "setting": "TK-10", "result": "8.09 µM (inactive)"}, {"measurement": "GI50", "setting": "UACC-62", "result": "2.06 µM (inactive)"}, {"measurement": "GI50", "setting": "UO-31", "result": "2.06 µM (inactive)"}]}
